Assay results published in patent EP1285920A1, “C10 Ester sustituted taxanes as antitumor agents” (Florida State University Research Foundation, Inc., priority 2001, dated 2003).
Like-named read-outs stand apart in the source and are kept apart here.

What was measured:
A2780 ovarian carcinoma = conditions: for MDS: i.v. qd x 1 (compounds estimated MTD; Taxol 24 mg/kg split; Taxotere 70 mg/kg), days until tumor 2.0 g, ended Day 60
Procedure: Dosing was initiated on Day 1. […] Taxotere was given i.v. on a qd x 1 schedule at a dose of 70 mg/kg. […] The study was terminated on Day 60. Treatment groups are detailed in Table 7.

HCT116 = assay: In Vitro cytotoxicity measured by the cell colony formation assay; assay type: cell-based, human; conditions: Homo sapiens, HCT-116; read-out: IN VITRO ID 50 HCT116
Method in brief: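 Four hundred cells per dish in McCoy's 5a medium with 10% FBS were allowed to attach for 5 h at 37 °C. They were then exposed to compound for 72 h at 37 °C, added as a 10× stock made fresh in medium. After HBSS rinsing and refeeding, colonies were counted after 7 days.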

HCT116 carcinoma = conditions: for Toxic Deaths: mg/kg: Taxol 36 (split doses), 0503 72.6, 0536 49, 0663 159, 0670 123, 0687 159, 0706 108, 0908 159, 0947 76.9, 0951 72.6, 0983 72.6, 0999 49, 1003 49, 1011 108
Procedure: Antitumor compounds were formulated for an i.v. dosing regime and were prepared in the following vehicle: 5% ethanol, 5% Cremophor and 90% isotonic saline.
The antitumor compounds were given intravenously in a single maximum tolerated dose (MTD) appropriate for each compound. […] The MTDs for the antitumor compounds were calculated from earlier single dose data for mice receiving i.v. administration of these compounds. All vehicle control animals in the split dosing regimes were dosed twice intravenously with half of the total volume being given separated by one hour. The study was terminated on Day 60.
A complete response is obtained if the tumor is not palpable at the end of the study.

MX-1 carcinoma = conditions: for treated animals with durable complete responses and partial responses: MX-1, single i.v. MTD; for Toxic Deaths: mg/kg: Taxol 36 (split dose), 0503 72.6, 0536 49, 0663 159, 0670 123, 0687 159, 0706 108, 0908 159, 0947 76.9, 0951 72.6, 0983 67.4, 0999 49, 1003 49, 1011 108
Procedure: Thirteen antitumor compounds were formulated for an i.v. dosing regime (single i.v. bolus, qd x 1 schedule) prepared in the following vehicle: 5% ethanol, 5% Cremophor and 90% isotonic saline.
The antitumor compounds were given intravenously in a single maximum tolerated dose (MTD) appropriate for each compound. […] The MTDs for the antitumor compounds were calculated from earlier single dose data for mice receiving i.v. administration of these compounds. All vehicle control animals in the split dosing regimes were dosed twice intravenously with half the total volume being given separated by one hour. The study was terminated on Day 60.
A complete response is obtained if the tumor is not palpable at the end of the study. […]

[1] = A2780, i.v. qd x 1, five mice per group
[2] = number of mice, i.v. qd x 1 at estimated MTD (Taxol 24 mg/kg, Taxotere 70 mg/kg, 0983 72.6 mg/kg), 5 mice/group (Taxotere 6)
[3] = number of mice, i.v. qd x 1 at estimated MTD (Taxol 24 mg/kg, Taxotere 70 mg/kg, 0983 72.6 mg/kg), 5 mice/group (Taxotere 6), Day 60
[4] = i.v. qd x 1 at MTD, 5 mice/group, Day 60, doses as in E3
[5] = number of 5 mice, tumor did not reach 2.0 g by end of study, i.v. qd x 1 at MTD, Day 60, doses as in E3
[6] = number of 5 mice, tumor not palpable at end of study, i.v. qd x 1 at MTD, Day 60, doses as in E3
[7] = number of 5 mice, tumor smaller than on Day 1, i.v. qd x 1 at MTD, Day 60, doses as in E3
[8] = number of 5 mice, i.v. qd x 1 at MTD, Day 60, doses as in E3
[9] = number of 5 mice, i.v. qd x 1 at MTD, Day 60
[10] = i.v. qd x 1 at MTD, 6 mice/group, Day 60, doses as in E17
[11] = number of 6 mice, tumor did not reach 2.0 g by end of study, i.v. qd x 1 at MTD, Day 60, doses as in E17
[12] = number of 6 mice, tumor not palpable at end of study, i.v. qd x 1 at MTD, Day 60, doses as in E17
[13] = number of 6 mice, tumor smaller than on Day 1, i.v. qd x 1 at MTD, Day 60, doses as in E17
[14] = number of 6 mice, i.v. qd x 1 at MTD, Day 60, doses as in E17
[15] = number of 6 mice, i.v. qd x 1 at MTD, Day 60

| SMILES | survival extension compared to Group 1 controls (A2780 ovarian carcinoma; A2780, i.v. qd x 1) [%] | MDS (A2780 ovarian carcinoma; A2780) [days] | total response rate (A2780 ovarian carcinoma; [1]) | Toxic Deaths (A2780 ovarian carcinoma; [2]) | Survivors (A2780 ovarian carcinoma; [3]) | IC50 (HCT116) [nM] | Mean Score (HCT116 carcinoma; [4]) | Stable Disease (HCT116 carcinoma; [5]) | Complete Response (HCT116 carcinoma; [6]) | Partial Response (HCT116 carcinoma; [7]) | Survivors (HCT116 carcinoma; [8]) | Toxic Deaths (HCT116 carcinoma; [9]) | treated animals with durable complete responses and partial responses (MX-1 carcinoma) [%] | Mean Score (MX-1 carcinoma; [10]) | Stable Disease (MX-1 carcinoma; [11]) | Complete Response (MX-1 carcinoma; [12]) | Partial Response (MX-1 carcinoma; [13]) | Survivors (MX-1 carcinoma; [14]) | Toxic Deaths (MX-1 carcinoma; [15]) | partial responses (A2780 ovarian carcinoma; [1]) | other results |
| --- | --- | --- | --- | --- | --- | --- | --- | --- | --- | --- | --- | --- | --- | --- | --- | --- | --- | --- | --- | --- | --- |
| CC(=O)O[C@@]12CO[C@@H]1C[C@H](O)[C@@]1(C)C(=O)[C@H](OC(=O)C3CC3)C3=C(C)[C@@H](OC(=O)[C@H](O)[C@@H](NC(=O)c4ccccc4)c4ccco4)C[C@@](O)([C@@H](OC(=O)c4ccccc4)[C@H]21)C3(C)C [Compound 0908] | 268 | 43.1 | at least 20% | 1 | 2 | < 1 | 9.2 ± 0.2 | 0 | 1 | 4 | 5 | 0 | 100 | 9.7 ± 0.3 | 0 | 5 | 1 | 6 | 0 |  | Toxic Deaths (A2780 ovarian carcinoma; [1]): one; MDS (n) (A2780 ovarian carcinoma; mean days of survival until neoplasm reached 2.0 g, i.v. qd x 1 at estimated MTD (Taxol 24 mg/kg, Taxotere 70 mg/kg, 0983 72.6 mg/kg), 5 mice/group (Taxotere 6), terminated Day 60): 43.1 ± 8.0 (2) days; Complete Response (A2780 ovarian carcinoma; [3]): 0; Partial Respons (A2780 ovarian carcinoma; [3]): 1; Stable Disease (A2780 ovarian carcinoma; [3]): 1; Mean Score (A2780 ovarian carcinoma; tumor scoring system, i.v. qd x 1 at estimated MTD (Taxol 24 mg/kg, Taxotere 70 mg/kg, 0983 72.6 mg/kg), 5 mice/group (Taxotere 6)): 3.8 ± 1.5 |
| CCCC(=O)O[C@H]1C(=O)[C@@]2(C)[C@H]([C@H](OC(=O)c3ccccc3)[C@]3(O)C[C@H](OC(=O)[C@H](O)[C@H](C=C(C)C)NC(=O)OC(C)(C)C)C(C)=C1C3(C)C)[C@]1(OC(C)=O)CO[C@@H]1C[C@@H]2O [Compound 0947] |  |  | at least 20% | 1 | 2 | < 1 |  |  |  |  | 5 | 0 |  |  |  |  |  | 3 | 2 | 2 | Mean Score (A2780 ovarian carcinoma; iv, 72.6 mg/kg): 4.8 ± 1.8; Complete Response (A2780 ovarian carcinoma; iv, 72.6 mg/kg, 1440 h): 0; MDS (n) (A2780 ovarian carcinoma; iv, 72.6 mg/kg, 1440 h): 32.7 ± 5.4 (2) days; Partial Respons (A2780 ovarian carcinoma; iv, 72.6 mg/kg, 1440 h): 2; Stable Disease (A2780 ovarian carcinoma; iv, 72.6 mg/kg, 1440 h): 0; Partial Response (HCT116 carcinoma; iv): 4; Complete Response (HCT116 carcinoma; iv, 1440 h): 1; Mean Score (HCT116 carcinoma; iv, 1440 h): 9.2 ± 0.2; Stable Disease (HCT116 carcinoma; iv, 1440 h): 0; Partial Response (MX-1 carcinoma; iv): 0; Complete Response (MX-1 carcinoma; iv, 1440 h): 3; Mean Score (MX-1 carcinoma; iv, 1440 h): 5.5 ± 2.1; Stable Disease (MX-1 carcinoma; iv, 1440 h): 0 |
| CCCC(=O)O[C@H]1C(=O)[C@@]2(C)[C@H]([C@H](OC(=O)c3ccccc3)[C@]3(O)C[C@H](OC(=O)[C@H](O)[C@@H](NC(=O)OC(C)(C)C)c4ccccn4)C(C)=C1C3(C)C)[C@]1(OC(C)=O)CO[C@@H]1C[C@@H]2O [Compound 0951] | 269 | 43.2 |  |  |  | < 1 | 9.6 ± 0.2 | 0 | 3 | 2 | 5 | 0 | 100 | 9.5 ± 0.5 | 0 | 5 | 1 | 6 | 0 |  | antitumor activity (A2780 ovarian carcinoma; A2780, i.v. qd x 1): no tumor shrinkage; Stable Disease (A2780 ovarian carcinoma; [1]): one |
| CCCC(=O)O[C@H]1C(=O)[C@@]2(C)[C@H]([C@H](OC(=O)c3ccccc3)[C@]3(O)C[C@H](OC(=O)[C@H](O)[C@@H](NC(=O)OC(C)(C)C)c4ccoc4)C(C)=C1C3(C)C)[C@]1(OC(C)=O)CO[C@@H]1C[C@@H]2O [Compound 0999] |  |  | at least 20% |  |  | < 1 | 9.2 ± 0.2 | 0 | 1 | 4 | 5 | 0 |  | 8.2 ± 1.2 | 0 | 4 | 1 | 5 | 0 |  |  |
| CCCC(=O)O[C@H]1C(=O)[C@@]2(C)[C@H]([C@H](OC(=O)c3ccccc3)[C@]3(O)C[C@H](OC(=O)[C@H](O)[C@@H](NC(=O)OC(C)(C)C)c4cccs4)C(C)=C1C3(C)C)[C@]1(OC(C)=O)CO[C@@H]1C[C@@H]2O [Compound 1003] |  |  | at least 20% |  |  | < 1 |  |  |  |  | 5 | 0 |  |  |  |  |  | 4 | 0 | 2 | Partial Response (HCT116 carcinoma; iv): 3; Complete Response (HCT116 carcinoma; iv, 1440 h): 2; Mean Score (HCT116 carcinoma; iv, 1440 h): 9.4 ± 0.2; Stable Disease (HCT116 carcinoma; iv, 1440 h): 0; Partial Response (MX-1 carcinoma; iv): 0; Complete Response (MX-1 carcinoma; iv, 1440 h): 4; MDS (n) (MX-1 carcinoma; iv, 1440 h): 29.1 ± 10.8 (2) days; Mean Score (MX-1 carcinoma; iv, 1440 h): 7.3 ± 1.7; Stable Disease (MX-1 carcinoma; iv, 1440 h): 0 |
